# Results published in patent US10188617B2, “Modulation of cellular DNA repair activity to intercept malignancy” (THE BOARD OF TRUSTEES OF THE LELAND STANFORD JUNIOR …, priority 2013, dated 2019).
# Where a name gives a salt, the structure may show the parent alone.
# Key:
# [1] = tested on: BER of ODD in SUM149PT cells; assay: High-throughput chemical screen with cell-based DNA repair assay (oxidatively damaged GFP reporter, host-cell reactivation); conditions: for Priority score (summed priority score): sum of assigned priority scores, range 1-10, 10 = highest priority; for EC50: read-out: EC50 (image analysis), dose-response increase in GFP expression by imaging, 20 μM to 0.3 μM two-fold dilutions; for % BER (High) (image analysis): % BER activity relative to negative control at high concentration; for identified as hit in the screen (enhanced BER of ODD): LOPAC1280 library, summed priority score above 1;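 as to all read-outs here: SUM149PT cells pretreated 24 h with compound, then given photodynamically oxidized adenoviral GFP reporter, 24 h host-cell reactivation, GFP read as repair, undamaged reporter positive and damaged reporter negative control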
# [2] = tested on: BER of ODD in MCF7 cells (wild-type BRCA1, BER-proficient); assay: DNA repair assay (oxidatively damaged GFP reporter gene), follow-up; type: cell-based, human; conditions: BER-proficient MCF7 cells
# Experimental: (§1) Human breast cancer cell lines that were deficient in BER (HCC1143, MDAMB468, HCC1937, and SUM149) or proficient in BER (BT474 and MCF7) were cultured according to American Type Culture Collection guidelines, with the exception of SUM149, which was cultured according to Asterand plc guidelines. Brca1^+/+ and Brca1^-/- mouse mammary epithelial […] previously described. Cells were treated with DMSO (vehicle control) or acetohexamide or benserazide as indicated for 24 hours at 37° C. and 5% CO2. The DNA repair assay was carried out as described in the examples below. Where indicated, BER (base excision mode of DNA repair) activity was expressed relative to the control (DMSO).
# [3] = tested on: BER of ODD in SUM149 cells (mutant BRCA1, BER-defective); assay: as above; type: cell-based, human; conditions: for BER compared to the vehicle control (SAR mini-analysis): SUM149PT cells; for repair activity compared to the vehicle control: SUM149
# Experimental: as §1
# [4] = tested on: MCF7 cells transduced with non-targeting control; assay: Soft agar colony formation assay; type: cell-based, human
# Text: (§2) […] Colony formation represents tumorigenic potential. Tamoxifen is the current FDA-approved chemoprevention agent for breast cancer and a therapeutically-equivalent dose was used for comparison.
# (§3) Benserazide and carbidopa were also both included among the compounds screened for BER-enhancing activity (FIG. 3A-3B). […] Therefore, we first validated our screening data by subjecting the mutant BRCA1-containing SUM149 cell line to the BER assay following pre-treatment with vehicle control or carbidopa.
# [5] = tested on: MCF7 cells transduced with shRNA to BRCA1; assay: Soft agar colony formation assay; type: cell-based, human
# Text: as §2, §3
Compound,Priority score (summed priority score) [1],EC50 [1] [µM],also measured
C[C@@]12C(=O)OC(=O)[C@]1(C)[C@H]1CC[C@@H]2O1 [Cantharidin],10,,
COC(=O)C(N)Cc1ccc(Cl)cc1.Cl (racemic) [DL-p-Chlorophenylalanine methyl ester hydrochloride],7,25.8,
Cl.NCCc1ccc(S(=O)(=O)F)cc1 [4-(2-Aminoethyl)benzenesulfonyl fluoride hydrochloride],7,98.7,% BER (High) (image analysis) ([1]; imaging): 25.1%
"CN(C)CCC(c1ccc(Br)cc1)c1ccccn1.O=C(O)/C=C\C(=O)O (single isomer, unassigned; (+)) [(+)-Brompheniramine maleate]",7,27.5,% BER (High) (image analysis) ([1]; imaging): 29.4%
CC(C)CCNC(=O)NS(=O)(=O)c1ccccc1 [BA-9],,,repair compared to vehicle control (SAR mini-analysis) [2]: none of the four analogs significantly increased repair; BER compared to the vehicle control (SAR mini-analysis) [3]: significantly increased BER
"Cl.NC(CO)C(=O)NNCc1ccc(O)c(O)c1O (racemic) [Benserazide hydrochloride, DL-Serine 2-(2,3,4-trihydroxybenzyl)hydrazide hydrochloride]",7,22.1,
CC(C)COCC(CN(Cc1ccccc1)c1ccccc1)N1CCCC1 (stereo not drawn) [Bepridil hydrochloride],10,22.7,
CC[N+](C)(C)Cc1ccccc1Br [Bretylium tosylate],7,26.9,
Cc1ccc(S(=O)(=O)NC(=O)NC2CCCCC2)cc1 [BA-4],,,repair compared to vehicle control (SAR mini-analysis) [2]: none of the four analogs significantly increased repair; BER compared to the vehicle control (SAR mini-analysis) [3]: significantly increased BER
O=C1c2c(O)ccc(O)c2C(=O)c2c(NCCNCCO)ccc(NCCNCCO)c21 [Mitoxantrone],7,13.2,
CCCCNC(=O)NS(=O)(=O)c1ccccc1 [BA-5],,,repair compared to vehicle control (SAR mini-analysis) [2]: none of the four analogs significantly increased repair; BER compared to the vehicle control (SAR mini-analysis) [3]: increased BER in these cells but without statistical significance
C[C@H](CS)C(=O)N1CCC[C@H]1C(=O)O [Captopril],7,18.8,
CC(=O)O[C@]1(C(C)=O)CC[C@H]2[C@@H]3C=C(Cl)C4=CC(=O)[C@@H]5C[C@@H]5[C@]4(C)[C@H]3CC[C@@]21C [Cyproterone acetate],7,27.8,
CN(C)CCOC(=O)COc1ccc(Cl)cc1 [Centrophenoxine hydrochloride],7,20.4,
"Cc1cnc(C(=O)NCCc2ccc(S(=O)(=O)NC(=O)NC3CCCCC3)cc2)cn1 [Glipizide, N-(4-[N-(cyclohexylcarbamoyl)sulfamoyl]phenethyl)-5-methylpyrazine-2-carboxamide]",2,,repair compared to vehicle control (SAR mini-analysis) [2]: none of the four analogs significantly increased repair; BER compared to the vehicle control (SAR mini-analysis) [3]: significantly increased BER; relative BER activity ([3]; relative to the control (DMSO)): 1.22±0.12; identified as hit in the screen (enhanced BER of ODD) [1]: identified as a hit
CNc1ccc2oc(C[C@H]3O[C@@]4(CC[C@H]3C)O[C@H]([C@H](C)C(=O)c3ccc[nH]3)[C@H](C)C[C@H]4C)nc2c1C(=O)O [Calcimycin],7,5.14,
N=c1ccn2c(n1)O[C@H]1[C@H](O)[C@@H](CO)O[C@H]12 [Ancitabine hydrochloride],10,19.8,
Cl.Nc1ccn([C@@H]2O[C@H](CO)[C@@H](O)[C@@H]2O)c(=O)n1 [Cytosine-1-beta-D-arabinofuranoside hydrochloride],10,22.8,% BER (High) (image analysis) ([1]; imaging): 18.3%
O=c1[nH]c(=O)n([C@H]2C[C@H](O)[C@@H](CO)O2)cc1Br [5-Bromo-2′-deoxyuridine],10,7.27,"GFP signal in image montage ([1]; preliminary screen, highest concentration tested 18 uM): visible signal similar to that of SUM149PTcells infected with undamaged adGFP; percentage of GFP-positive cells (normalized to Hoechst 33342-positive cells) ([1]; preliminary screen, imaging): dose-response increase in the percentage of GFP-positive cells; GFP intensity (normalized to Hoechst 33342-intensity) ([1]; preliminary screen, plate reading): dose-response increase in GFP intensity"
Clc1ccccc1C(c1ccccc1)(c1ccccc1)n1ccnc1 [Clotrimazole],7,,
"C[C@@](Cc1ccc(O)c(O)c1)(NN)C(=O)O [carbidopa, Carbidopa]",,,repair activity compared to the vehicle control ([3]; 10 μM): no effect on repair activity; repair activity compared to the vehicle control ([3]; 20 μM): no effect on repair activity; colony formation compared to vehicle control ([4]; 10 μM): no significant effect on colony formation; colony formation compared to vehicle control ([4]; 20 μM): no significant effect on colony formation; colony formation compared to vehicle control ([5]; 10 μM): no significant effect on colony formation; colony formation compared to vehicle control ([5]; 20 μM): no significant effect on colony formation; identified as hit in the screen (enhanced BER of ODD) [1]: did not identify carbidopa as a hit
